# Test system: ppMlc (T18/S19) levels in A7R5 cells
# Assay: A7R5 in-cell ELISA (pMLC)
# Type: cell-based, Rat
# Details: Rattus norvegicus, A7R5, A7R5 cells, 1 μM compound; read-out: pMLC % inh A7R5 @ [conc]
# Procedure: Determination of Compounds ROCK Inhibitory Activity in A7R5Cells.
# Rat aortic smooth muscle cell line, A7R5, cells were seeded with density of 5,000 cells/well in a 96-well plates for 24 hours and subsequently treated for 90 min with testing compounds. Cells were then fixed and processed according to the In-Cell ELISA Colorimetric Detection Kit manual (Thermo Scientific).
# An A7R5 in-cell Elisa assay was performed. A7R5 cells were treated with 9 points 2 fold serial dilution of compounds and ppMlc (T18/S19) levels were determined to calculate cellular IC50 values of the compounds. Compounds of the invention gave in cell IC50s under 100 nM.
# In vitro activities for the compounds were measured with Z′-lyte kinase kit (ThermoFisher Scientific). The percent inhibition rate was calculated by normalizing the kinase activity value obtained with 1 μM compound treatment against DMSO control value and then applied to the formula, [1-(compound/DMSO)]×100%. IC50s were calculated using the nonlinear regression curve fit function of the GraphPad Prism software with kinase activities data measured with 9 points 2-fold serial dilution of compounds treatment. In cell pMLC IC50s were calculated with data obtained from A7R5 cell experiments. A7R5 cells were treated with 9 points 2-fold serial dilution of compounds and ppMlc (T18/S19) levels were determined to calculate cellular IC50 values of the compounds using the nonlinear regression curve fit function of the GraphPad Prism software. NIH3T3 cells stably expressing ACTA2-promoter-driven-luciferase were applied to measure ROCK compounds functional IC50s in cells. Cells were plated in 96 well plates to confluence and treated with 9 points serial dilution of compounds in combination with TGFβ1 for 24 hr. Luciferase activities were measured and compound's IC50s were calculated using the nonlinear regression curve fit function of the GraphPad Prism software.
row,Structure (SMILES),inhibition at 1 µM [%]
1,"Cc1cc(Nc2ccc3[nH]ncc3c2)nc(N2CC3(CCNC3)C2)n1 [Example 126, N-(6-methyl-2-(2,6-diazaspiro[3.4]octan-2-yl)pyrimidin-4-yl)-1H-indazol-5-amine]",-12.3
2,"Cc1cc(Nc2ccc3[nH]ncc3c2)nc(N2CC3(CCNCC3)C2)n1 [Example 127, N-(6-methyl-2-(2,7-diazaspiro[3.5]nonan-2-yl)pyrimidin-4-yl)-1H-indazol-5-amine]",-7.2
3,"Cc1cc(Nc2ccc3[nH]ncc3c2)nc(N2CC3(CNC3)C2)n1 [Example 128, N-(6-methyl-2-(2,6-diazaspiro[3.3]heptan-2-yl)pyrimidin-4-yl)-1H-indazol-5-amine]",-8.3
4,"Cc1cc(Nc2ccc3[nH]ncc3c2)nc(N2CCCC(C3CCCNC3)C2)n1 (stereo not shown) [Example 136, N-(2-([3,3′-bipiperidin]-1-yl)-6-methylpyrimidin-4-yl)-1H-indazol-5-amine]",1.1
5,"Cc1cc(Nc2ccc3[nH]ncc3c2)nc(N2CC(C3CCCNC3)c3ccccc32)n1 (stereo not shown) [Example 139, N-(6-methyl-2-(3-(piperidin-3-yl)indolin-1-yl)pyrimidin-4-yl)-1H-indazol-5-amine]",2.2
6,"OCC1CNCCN1c1ncc(F)c(Nc2ccc3[nH]ncc3c2)n1 (stereo not shown) [Example 156, (1-(4-((1H-indazol-5-yl)amino)-5-fluoropyrimidin-2-yl)piperazin-2-yl)methanol]",7.1
7,"Fc1cnc(N2CCC3(CC2)CNC3)nc1Nc1ccc2[nH]ncc2c1 [Example 158, N-(5-fluoro-2-(2,7-diazaspiro[3.5]nonan-7-yl)pyrimidin-4-yl)-1H-indazol-5-amine]",-1.1
8,"Fc1cnc(N2CCC3(CNC3)C2)nc1Nc1ccc2[nH]ncc2c1 [Example 159, N-(5-fluoro-2-(2,6-diazaspiro[3.4]octan-6-yl)pyrimidin-4-yl)-1H-indazol-5-amine]",-12.2
9,"Fc1cnc(N2CCC3(CC2)CNCCO3)nc1Nc1ccc2[nH]ncc2c1 [Example 160, N-(5-fluoro-2-(1-oxa-4,9-diazaspiro[5.5]undecan-9-yl)pyrimidin-4-yl)-1H-indazol-5-amine]",5.9
10,"Fc1cnc(N2CCC3(CCCNC3)C2)nc1Nc1ccc2[nH]ncc2c1 (stereo not shown) [Example 161, N-(5-fluoro-2-(2,7-diazaspiro[4.5]decan-2-yl)pyrimidin-4-yl)-1H-indazol-5-amine]",2.6
11,"Fc1cnc(N2CCCC3(CCNC3)C2)nc1Nc1ccc2[nH]ncc2c1 (stereo not shown) [Example 162, N-(5-fluoro-2-(2,7-diazaspiro[4.5]decan-7-yl)pyrimidin-4-yl)-1H-indazol-5-amine]",16.7
12,"Fc1cnc(N2CC3(CCNC3)C2)nc1Nc1ccc2[nH]ncc2c1 [Example 163, N-(5-fluoro-2-(2,6-diazaspiro[3.4]octan-2-yl)pyrimidin-4-yl)-1H-indazol-5-amine]",-7.8
13,"Fc1cnc(N2CC3(CCNCC3)C2)nc1Nc1ccc2[nH]ncc2c1 [Example 164, N-(5-fluoro-2-(2,7-diazaspiro[3.5]nonan-2-yl)pyrimidin-4-yl)-1H-indazol-5-amine]",-8.3
14,"Fc1cnc(N2CC3(CNC3)C2)nc1Nc1ccc2[nH]ncc2c1 [Example 165, N-(5-fluoro-2-(2,6-diazaspiro[3.3]heptan-2-yl)pyrimidin-4-yl)-1H-indazol-5-amine]",-10.2
15,"Fc1cnc(N2CCC3NCCC3C2)nc1Nc1ccc2[nH]ncc2c1 (stereo not shown) [Example 168, N-(5-fluoro-2-(octahydro-5H-pyrrolo[3,2-c]pyridin-5-yl)pyrimidin-4-yl)-1H-indazol-5-amine]",12.2
16,"Fc1cnc(N2CCCC(C3CCCNC3)C2)nc1Nc1ccc2[nH]ncc2c1 (stereo not shown) [Example 171, N-(2-([3,3′-bipiperidin]-1-yl)-5-fluoropyrimidin-4-yl)-1H-indazol-5-amine]",-9.6
17,"Fc1cnc(N2CCC(C3CNC3)C2)nc1Nc1ccc2[nH]ncc2c1 (stereo not shown) [Example 172, N-(2-(3-(azetidin-3-yl)pyrrolidin-1-yl)-5-fluoropyrimidin-4-yl)-1H-indazol-5-amine]",-9.9

# Same assay, conditions: Rattus norvegicus, A7R5, A7R5 cells, 10 μM compound; read-out: pMLC % inh A7R5 @ [conc]
row,Structure (SMILES),inhibition at 10 µM [%]
1,"Fc1cnc(N2CCCNC(c3ccccc3)C2)nc1Nc1ccc2[nH]ncc2c1 (stereo not shown) [Example 141, N-(5-fluoro-2-(3-phenyl-1,4-diazepan-1-yl)pyrimidin-4-yl)-1H-indazol-5-amine]",54.9
2,"Fc1cnc(N2CCNC(c3ccccc3)CC2)nc1Nc1ccc2[nH]ncc2c1 (stereo not shown) [Example 142, N-(5-fluoro-2-(5-phenyl-1,4-diazepan-1-yl)pyrimidin-4-yl)-1H-indazol-5-amine]",37.5
3,"CC(C)C1CN(c2ncc(F)c(Nc3ccc4[nH]ncc4c3)n2)CCCN1 (stereo not shown) [Example 144, N-(5-fluoro-2-(3-isopropyl-1,4-diazepan-1-yl)pyrimidin-4-yl)-1H-indazol-5-amine]",45.6
4,"CC(C)C1CCN(c2ncc(F)c(Nc3ccc4[nH]ncc4c3)n2)CCN1 (stereo not shown) [Example 145, N-(5-fluoro-2-(5-isopropyl-1,4-diazepan-1-yl)pyrimidin-4-yl)-1H-indazol-5-amine]",42.4
5,"CC(C)C1CN(c2ncc(Cl)c(Nc3ccc4[nH]ncc4c3)n2)CCCN1 (stereo not shown) [Example 181, N-(5-chloro-2-(3-isopropyl-1,4-diazepan-1-yl)pyrimidin-4-yl)-1H-indazol-5-amine]",36.5
6,"CC(C)C1CCN(c2ncc(Cl)c(Nc3ccc4[nH]ncc4c3)n2)CCN1 (stereo not shown) [Example 182, N-(5-chloro-2-(5-isopropyl-1,4-diazepan-1-yl)pyrimidin-4-yl)-1H-indazol-5-amine]",30.2
7,"Clc1cnc(N2CCCNC(c3ccccc3)C2)nc1Nc1ccc2[nH]ncc2c1 (stereo not shown) [Example 183, N-(5-chloro-2-(3-phenyl-1,4-diazepan-1-yl)pyrimidin-4-yl)-1H-indazol-5-amine]",43.1
8,"Clc1cnc(N2CCNC(c3ccccc3)CC2)nc1Nc1ccc2[nH]ncc2c1 (stereo not shown) [Example 184, N-(5-chloro-2-(5-phenyl-1,4-diazepan-1-yl)pyrimidin-4-yl)-1H-indazol-5-amine]",34.1
9,"c1ccc(C2CN(c3nccc(Nc4ccc5[nH]ncc5c4)n3)CCN2)cc1 (stereo not shown) [Example 224, N-(2-(3-phenylpiperazin-1-yl)pyrimidin-4-yl)-1H-indazol-5-amine]",48
10,"CC1CN(c2nccc(Nc3ccc4[nH]ncc4c3)n2)CC(C)N1 (stereo not shown) [Example 226, N-(2-(3,5-dimethylpiperazin-1-yl)pyrimidin-4-yl)-1H-indazol-5-amine]",67.7
11,"CC1(C)CN(c2nccc(Nc3ccc4[nH]ncc4c3)n2)CCN1 [Example 227, N-(2-(3,3-dimethylpiperazin-1-yl)pyrimidin-4-yl)-1H-indazol-5-amine]",83.4
12,"OCC1CNCCN1c1nccc(Nc2ccc3[nH]ncc3c2)n1 (stereo not shown) [Example 230, (1-(4-((1H-indazol-5-yl)amino)pyrimidin-2-yl)piperazin-2-yl)methanol]",16.1
13,"c1ccc(CC2CCNCCN2c2nc3c(c(Nc4ccc5[nH]ncc5c4)n2)COC3)cc1 (stereo not shown) [Example 236, 2-(7-benzyl-1,4-diazepan-1-yl)-N-(1H-indazol-5-yl)-5,7-dihydrofuro[3,4-d]pyrimidin-4-amine]",80.8
14,"CC1CN(c2nccc(Nc3ccc(-c4cn[nH]c4)cc3)n2)CCN1 (stereo not shown) [Example 252, N-(4-(1H-pyrazol-4-yl)phenyl)-2-(3-methylpiperazin-1-yl)pyrimidin-4-amine]",65
15,"CC1CNCCN1c1nccc(Nc2ccc(-c3cn[nH]c3)cc2)n1 (stereo not shown) [Example 253, N-(4-(1H-pyrazol-4-yl)phenyl)-2-(2-methylpiperazin-1-yl)pyrimidin-4-amine]",41.5
16,"CC1(C)CN(c2nccc(Nc3ccc(-c4cn[nH]c4)cc3)n2)CCN1 [Example 255, N-(4-(1H-pyrazol-4-yl)phenyl)-2-(3,3-dimethylpiperazin-1-yl)pyrimidin-4-amine]",72
17,"CC1CN(c2nccc(Nc3ccc(-c4cn[nH]c4)cc3)n2)CC(C)N1 (stereo not shown) [Example 256, N-(4-(1H-pyrazol-4-yl)phenyl)-2-(3,5-dimethylpiperazin-1-yl)pyrimidin-4-amine]",84.5
18,"c1cc(Nc2ccc(-c3cn[nH]c3)cc2)nc(N2C3CCC2CNC3)n1 [Example 257, N-(4-(1H-pyrazol-4-yl)phenyl)-2-(3,8-diazabicyclo[3.2.1]octan-8-yl)pyrimidin-4-amine]",85.6
19,"c1cc(Nc2ccc(-c3cn[nH]c3)cc2)nc(N2CC3CCC(C2)N3)n1 [Example 258, N-(4-(1H-pyrazol-4-yl)phenyl)-2-(3,8-diazabicyclo[3.2.1]octan-3-yl)pyrimidin-4-amine]",26

# Same assay, conditions: Rattus norvegicus, A7R5, A7R5 cells, ppMlc (T18/S19)
row,Structure (SMILES),IC50 [nM]
1,"Fc1cnc(N2CCCNC(c3ccccc3)C2)nc1Nc1ccc2[nH]ncc2c1 (stereo not shown) [Example 141, N-(5-fluoro-2-(3-phenyl-1,4-diazepan-1-yl)pyrimidin-4-yl)-1H-indazol-5-amine]",2890
2,"c1ccc(C2CN(c3nccc(Nc4ccc5[nH]ncc5c4)n3)CCN2)cc1 (stereo not shown) [Example 224, N-(2-(3-phenylpiperazin-1-yl)pyrimidin-4-yl)-1H-indazol-5-amine]",3350
3,"c1ccc(CC2CCNCCN2c2nc3c(c(Nc4ccc5[nH]ncc5c4)n2)COC3)cc1 (stereo not shown) [Example 236, 2-(7-benzyl-1,4-diazepan-1-yl)-N-(1H-indazol-5-yl)-5,7-dihydrofuro[3,4-d]pyrimidin-4-amine]",4690
4,"CC1CN(c2nccc(Nc3ccc(-c4cn[nH]c4)cc3)n2)CCN1 (stereo not shown) [Example 252, N-(4-(1H-pyrazol-4-yl)phenyl)-2-(3-methylpiperazin-1-yl)pyrimidin-4-amine]",1170
5,"CC1(C)CN(c2nccc(Nc3ccc(-c4cn[nH]c4)cc3)n2)CCN1 [Example 255, N-(4-(1H-pyrazol-4-yl)phenyl)-2-(3,3-dimethylpiperazin-1-yl)pyrimidin-4-amine]",1360
6,"CC1CN(c2nccc(Nc3ccc(-c4cn[nH]c4)cc3)n2)CC(C)N1 (stereo not shown) [Example 256, N-(4-(1H-pyrazol-4-yl)phenyl)-2-(3,5-dimethylpiperazin-1-yl)pyrimidin-4-amine]",1560
7,"c1cc(Nc2ccc(-c3cn[nH]c3)cc2)nc(N2C3CCC2CNC3)n1 [Example 257, N-(4-(1H-pyrazol-4-yl)phenyl)-2-(3,8-diazabicyclo[3.2.1]octan-8-yl)pyrimidin-4-amine]",2070

# From patent US11613531B2, “Inhibitors of RHO associated coiled-coil containing protein kinase” (Kadmon Corporation, LLC, priority 2017, dated 2023)
